Earlier results on two molecules are cited in US20250319084A1, “ENDOCRINE THERAPY AND ABEMACICLIB COMBINATION FOR THE ADJUVANT TREATMENT OF NODE-POSITIVE, EARLY STAGE, HORMONE RECEPTOR-POSITIVE, HUMAN EPIDERMAL GROWTH FACTOR RECEPTOR 2-NEGATIVE BREAST CANCER” (Eli Lilly and Company, priority 2017, published 2025).

Structures are written as SMILES. Where two headings read alike, the source gives them in different places.

Data set [1] has as its system HR+ early breast cancer involving axillary lymph nodes.
Data set [2] relates to HR+metastatic breast cancer. Particulars: JPBA Phase 1b, continuously dosed single agent, across dose levels, heavily pretreated HR+ metastatic breast cancer refractory to endocrine therapy.
Data set [3] concerns HR+metastatic breast cancer. As to conditions: MONARCH 1 Phase 2, single agent, 200-mg dose twice daily, heavily pretreated HR+ metastatic breast cancer refractory to endocrine therapy.
Data set [4] deals with early neoadjuvant breast cancer. Particulars: 150 mg twice daily, as monotherapy and in combination with anastrozole.
The subject of data set [5] is human cancer xenografts, including breast cancer. As to conditions: multiple murine xenograft models for human cancer. (In general: Xenograft models place foreign cells or tissue in a host animal.)
The conditions of data set [6]: nonclinical species.
In data set [7] the test system is 46 breast cancer cell lines. Particulars: panel of 46 breast cancer cell lines representing known molecular subgroups.

With `N#Cc1ccc(C(c2ccc(C#N)cc2)n2cncn2)cc1` [letrozole], the 4-year disease-free survival in data set [1] (BIG 1-98, patients with higher Ki67 values (>11%)) was 85%; in data set [1] (BIG 1-98, patients with low (≤11%) Ki67 levels at baseline), 93%.

As to `CCN1CCN(Cc2ccc(Nc3ncc(F)c(-c4cc(F)c5nc(C)n(C(C)C)c5c4)n3)nc2)CC1` [Abemaciclib, [5-(4-ethyl-piperazin-1-ylmethyl)-pyridin-2-yl]-[5-fluoro-4-(7-fluoro-3-isopropyl-2-methyl-3H-benzoimidazol-5-yl)-pyrimidin-2-yl]-amine], the response rate in data set [2] is 33.3%; in data set [3] it was 19.7%. Also, the tolerability entry with HR+mBC (JPBH Phase 1b, combined with standard endocrine therapies) is “tolerable”. In the data set on HR+mBC (JPBH, abemaciclib plus endocrine therapy, predominantly low-grade severity, appear dose-dependent), the “most common adverse events” value is “fatigue, nausea, diarrhea, leukopenia, lymphopenia, neutropenia, and anemia”. For the same molecule, the safety profile result in data set [4] is “acceptable safety profile”. In addition, in data set [4] (versus anastrozole alone), the “reduction of tumor cell proliferation marker (Ki67 index)” value is reported as “to a significantly greater extent than anastrozole alone”. The tumor growth inhibition entry in data set [5] is “significantly inhibit tumor growth”. Besides, the toxicity profile result in data set [6] was “acceptable toxicity profile”. Further, the “growth inhibition in vitro (sensitivity by subgroup)” value in data set [7] is “sensitivity to CDK4 and CDK6 inhibition is greater in ER+breast cancers with luminal histology”.
